Results published in ChEMBL document CHEMBL1150890, “Cyclotheonamides E2 and E3, new potent serine protease inhibitors from the marine sponge of the genus Theonella” (J Nat Prod, 1998).
Starred links: 1 amine or outer side, 2 acyl side, 3 side chain; linkers in the order of their positions; H or OH if unused. Positions of bridges follow the written chain, without caps; N, C: chain ends. Non-standard residues stand in square brackets, D forms with d. Residues, ends and D or L forms follow the SMILES beside them. *: point of attachment. Arg(ψCOCO) = N=C(N)NCCC[C@H](N[*:1])C(=O)C(=O)[*:2]; X1 = O=C(/C=C/[C@H](Cc1ccc(O)cc1)N[*:1])[*:2]; aIle = CC[C@@H](C)[C@H](N)C(=O)O; Dap = NC[C@H](N)C(=O)O; PhAc = O=C(Cc1ccccc1)*

Columns and labels:
[1] = Inhibition of trypsin
Prothrombin = Prothrombin (Homo sapiens, UniProt P00734); experiment: Inhibition of thrombin

Row | IC50 [1] [nM] | IC50 (Prothrombin) [nM] | SMILES
1 | 16 | 23 | N=C(N)NCCC[C@@H]1NC(=O)[C@@H]2CCCN2C(=O)[C@@H](NC=O)CNC(=O)/C=C/[C@H](Cc2ccc(O)cc2)NC(=O)[C@@H](Cc2ccccc2)NC(=O)C1=O [CYCLOTHEONAMIDE A]
2 | 55 | 13 | CC[C@H](C)[C@H]1NC(=O)C(=O)[C@H](CCCNC(=N)N)NC(=O)[C@@H]2CCCN2C(=O)[C@@H](NC(=O)[C@H](C)NC(=O)c2ccccc2)CNC(=O)/C=C/[C@H](Cc2ccc(O)cc2)NC1=O [CYCLOTHEONAMIDE E2]
3 | 52 | 9.5 | CC[C@H](C)[C@H]1NC(=O)C(=O)[C@H](CCCNC(=N)N)NC(=O)[C@@H]2CCCN2C(=O)[C@@H](NC(=O)[C@H](C)NC(=O)CC(C)C)CNC(=O)/C=C/[C@H](Cc2ccc(O)cc2)NC1=O [CYCLOTHEONAMIDE E3]
4 | 30 | 2.9 | CC[C@@H](C)[C@@H]1NC(=O)C(=O)[C@H](CCCNC(=N)N)NC(=O)[C@@H]2CCCN2C(=O)[C@@H](NC(=O)[C@H](C)NC(=O)Cc2ccccc2)CNC(=O)/C=C/[C@H](Cc2ccc(O)cc2)NC1=O [CYCLOTHEONAMIDE E] (PhAc-A[Dap]P[Arg(ψCOCO)][aIle][X1]; lactam 2-C)
